Experimental data from US20260109707A1, “HETEROBIFUNCTIONAL COMPOUNDS AND METHODS OF TREATING DISEASE” (Halda Therapeutics OpCo. Inc., priority 2022, published 2026).
Where two headings read alike, the source gives them in different places.

Columns and labels:
[1] = test system: T-Rex 293 cell line SC3 cells having increased expression of androgen receptor protein due to exposure to doxycycline; experiment: Cellular growth inhibition assay, T-Rex 293 SC3 cells with doxycycline (CellTiter-Glo, 72 hours); type: cell-based; settings: T-Rex 293 SC3 cells with increased androgen receptor expression due to doxycycline (10 ng/mL)
How it was run: (§1)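 Doxycycline (10 ng/mL) was either included or omitted to toggle wild-type androgen receptor expression in SC3 cells, a T-Rex 293 clone, grown in stripped-serum, phenol red-free medium. After 72 hours with compound, viable cells were quantified by CellTiter-Glo 2.0.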

VCaP cells = experiment: Cellular growth inhibition assay for VCaP cells (CellTiter-Glo, 72 hours); type: cell-based, human
How it was run: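 Luminescent viability signal after 72 h of compound exposure gave GI50 values by four-parameter nonlinear regression. Compounds were added in 0.5% DMSO to cells plated 24 h earlier at 5000/well in DMEM containing 10% FBS.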

[2] = test system: T-Rex 293 cell line SC3 cells lacking increased expression of androgen receptor protein; experiment: Cellular growth inhibition assay, T-Rex 293 SC3 cells without doxycycline (CellTiter-Glo, 72 hours); type: cell-based; settings: T-Rex 293 cell line SC3 cells not exposed to doxycycline (lacking increased androgen receptor expression)
How it was run: as §1

GI50 (VCaP cells; Homo sapiens, VCaP, 72 h) [nM] | GI50 (VCaP cells) [nM] | Compound | GI50 ([1]; 72 h) [nM] | GI50 ([2]; 72 h) [nM] | GI50 [1] [nM] | GI50 [2] [nM]
< 500 |  | Cc1sc2c(c1C)C(c1ccc(C#CC3CC4(CCCN(c5ccc(C(=O)N[C@H]6CC[C@H](Oc7ccc(C#N)c(Cl)c7)CC6)nn5)C4)C3)nc1)=N[C@@H](C)c1nnc(C)n1-2 (stereo partly drawn) [I-459] | < 500 | < 500 |  | 
< 500 |  | Cc1sc2c(c1C)C(c1ccc(N3C[C@@H]4CN(c5ccc(C(=O)N[C@H]6CC[C@H](Oc7ccc(C#N)c(Cl)c7)CC6)nn5)C[C@@H]4C3)cc1F)=N[C@@H](C)c1nnc(C)n1-2 [I-676] | < 500 | < 500 |  | 
 | < 500 | Cc1sc2c(c1C)C(c1ccc(C3CCC4(CC3)CCN(c3ccc(C(=O)N[C@H]5CC[C@H](Oc6ccc(C#N)c(Cl)c6)CC5)nn3)C4)nc1)=N[C@@H](C)c1nnc(C)n1-2 (stereo partly drawn) [I-533] | < 500 | < 500 |  | 
< 500 |  | Cc1sc2c(c1C)C(c1ccc(C#CC3CC4(C3)CN(c3ccc(C(=O)N[C@H]5CC[C@H](Oc6ccc(C#N)c(Cl)c6)CC5)nn3)C4)cn1)=NC(C)c1nnc(C)n1-2 (stereo partly drawn) [I-457] | < 500 | > 3000 |  | 
 | > 3000 | Cc1sc2c(c1C)C(c1ccc(CC3CCC4(CCCN(c5ccc(C(=O)N[C@H]6CC[C@H](Oc7ccc(C#N)c(Cl)c7)CC6)nn5)C4)C3)cc1)=N[C@@H](C)c1nnc(C)n1-2 (stereo partly drawn) [I-585] |  |  | < 500 | > 3000
 | 1500 to 3000 | Cc1sc2c(c1C)C(c1ccc(OC3CCC4(C3)CN(c3ccc(C(=O)N[C@H]5CC[C@H](Oc6ccc(C#N)c(Cl)c6)CC5)nn3)CCO4)cc1)=N[C@@H](C)c1nnc(C)n1-2 (stereo partly drawn) [I-540] |  |  | < 500 | < 500
< 500 |  | Cc1sc2c(c1C)C(Oc1ccc(C3CC4(CCN(c5ccc(C(=O)N[C@H]6CC[C@H](Oc7ccc(C#N)c(Cl)c7)CC6)nn5)CC4)C3)cc1)=NC(Cc1ncco1)c1nnc(C)n1-2 (stereo partly drawn) [I-631] | > 3000 | > 3000 |  | 
 | > 3000 | Cc1sc2c(c1C)C(c1ccc(C3CCC4(CCCN(c5ccc(C(=O)N[C@H]6CC[C@H](Oc7ccc(C#N)c(Cl)c7)CC6)nn5)C4)CC3)cc1)=NC(C(F)(F)F)c1nnc(C)n1-2 (stereo partly drawn) [I-696] |  |  | > 3000 | > 3000
> 3000 |  | Cc1sc2c(c1C)C(c1ccc(C3CN(C4CCN(c5ccc(C(=O)N[C@H]6CC[C@H](Oc7ccc(C#N)c(Cl)c7)CC6)nn5)CC4)C3)cc1)=NC1(CC1)c1nnc(C)n1-2 [I-552] | < 500 | 1500 to 3000 |  | 
 | < 500 | COCC[C@@H]1N=C(c2ccc(C3CCC4(CCN(c5ccc(C(=O)N[C@H]6CC[C@H](Oc7ccc(C#N)c(Cl)c7)CC6)nn5)CC4)C3)cc2)c2c(sc(C)c2C)-n2c(C)nnc21 (stereo partly drawn) [I-617] |  |  | < 500 | 500 to 1500
 | > 3000 | Cc1sc2c(c1C)C(c1ccc(OC3CCC4(C3)CN(c3ccc(C(=O)N[C@H]5CC[C@H](Oc6ccc(C#N)c(Cl)c6)CC5)nn3)CCO4)cc1)=N[C@@H](C)c1nnc(C)n1-2 (stereo partly drawn) [I-541] |  |  | < 500 | < 500
 | > 3000 | Cc1sc2c(c1C)C(c1ccc(N3CCC4(CCCN(c5ccc(C(=O)N[C@H]6CC[C@H](Oc7ccc(C#N)c(Cl)c7)CC6)nn5)C4)CC3)cc1)=NC(C(F)(F)F)c1nnc(C)n1-2 (stereo partly drawn) [I-722] |  |  | > 3000 | > 3000
 | < 500 | Cc1sc2c(c1C)C(c1ccc(OCC3CC4(CCCN(c5ccc(C(=O)N[C@H]6CC[C@H](Oc7ccc(C#N)c(Cl)c7)CC6)nn5)C4)C3)cc1)=NCc1nnc(C)n1-2 (stereo partly drawn) [I-475] | < 500 |  |  | > 3000
 | 500 to 1500 | Cc1sc2c(c1C)C(c1ccc(N3CCC4CN(c5ccc(C(=O)N[C@H]6CC[C@H](Oc7ccc(C#N)c(Cl)c7)CC6)nn5)CCC4C3)cc1)=NC1(CC1)c1nnc(C)n1-2 (stereo partly drawn) [I-563] |  | < 500 | < 500 | 
 | > 3000 | Cc1sc2c(c1C)C(c1ccc(C3CCC4(CCN(c5ccc(C(=O)N[C@H]6CC[C@H](Oc7ccc(C#N)c(Cl)c7)CC6)nn5)CC4)C3)cc1)=NC(C(F)(F)F)c1nnc(C)n1-2 (stereo partly drawn) [I-758] |  |  | > 3000 | > 3000
< 500 |  | Cc1sc2c(c1C)C(c1ccc(CC3CCC4(CCCN(c5ccc(C(=O)N[C@H]6CC[C@H](Oc7ccc(C#N)c(Cl)c7)CC6)nn5)C4)C3)nc1)=N[C@@H](C)c1nnc(C)n1-2 (stereo partly drawn) [I-665] | < 500 | > 3000 |  | 
< 500 |  | Cc1sc2c(c1C)C(c1ccc(N3CCOC4(CCN(c5ccc(C(=O)N[C@H]6CC[C@H](Oc7ccc(C#N)c(Cl)c7)CC6)nn5)C4)C3)cc1)=N[C@@H](C)c1nnc(C)n1-2 (single isomer, unassigned) [I-827] | < 500 | < 500 |  | 
< 500 |  | Cc1sc2c(c1C)C(c1ccc(N3C[C@@H]4[C@H](C3)[C@H]4Nc3ncc(C(=O)N[C@H]4CC[C@H](Oc5ccc(C#N)c(Cl)c5)CC4)cn3)cc1)=NC(Cc1ncco1)c1nnc(C)n1-2 (stereo partly drawn) [I-805] | < 500 | < 500 |  | 
< 500 |  | Cc1sc2c(c1C)C(c1ccc(OC3CC4(C3)CC3(CCN(c5ccc(C(=O)N[C@H]6CC[C@H](Oc7ccc(C#N)c(Cl)c7)CC6)nn5)CC3)C4)cn1)=N[C@@H](C)c1nnc(C)n1-2 [I-465] | < 500 | > 3000 |  | 

The remaining lines, values behind:

Compound | GI50 (VCaP cells; Homo sapiens, VCaP, 72 h) [nM] | GI50 (VCaP cells) [nM] | GI50 ([1]; 72 h) [nM] | GI50 ([2]; 72 h) [nM] | GI50 [1] [nM] | GI50 [2] [nM]
Cc1sc2c(c1C)C(c1ccc(CC3CC(CC4CCN(c5ccc(C(=O)N[C@H]6CC[C@H](Oc7ccc(C#N)c(Cl)c7)CC6)nn5)CC4)C3)cc1)=N[C@@H](C)c1nnc(C)n1-2 (stereo partly drawn) [I-628] | < 500 |  | < 500 | > 3000 |  | 
Cc1sc2c(c1C)C(c1ccc(OC3(C)CC4(CN(c5ccc(C(=O)N[C@H]6CC[C@H](Oc7ccc(C#N)c(Cl)c7)CC6)nn5)C4)C3)cc1)=N[C@@H](C)c1nnc(C)n1-2 [I-595] | 500 to 1500 |  | < 500 | < 500 |  | 
Cc1sc2c(c1C)C(c1ccc(C3CCC4(CC3)CCN(c3ccc(C(=O)N[C@H]5CC[C@H](Oc6ccc(C#N)c(Cl)c6)CC5)nn3)C4)cn1)=NC1(CC1)c1nnc(C)n1-2 (stereo partly drawn) [I-718] |  | < 500 |  |  | 1500 to 3000 | > 3000
CC[C@@H]1N=C(c2ccc(N3CCC4(CC3)CCN(c3ccc(C(=O)N[C@H]5CC[C@H](Oc6ccc(C#N)c(Cl)c6)CC5)nn3)C4)cc2)c2c(sc(C)c2C)-n2c(C)nnc21 [I-530] | > 3000 |  | < 500 | < 500 |  | 
Cc1sc2c(c1C)C(c1ccc(C3CCC4(CC3)CCN(c3ccc(C(=O)N[C@H]5CC[C@H](Oc6ccc(C#N)c(Cl)c6)CC5)nn3)CC4)cc1)=N[C@@H](C)c1nnc(C)n1-2 [I-590] | > 3000 |  | < 500 | < 500 |  | 
Cc1sc2c(c1C)C(c1ccc(N3CC4(CC(Cc5ccc(C(=O)N[C@H]6CC[C@H](Oc7ccc(C#N)c(Cl)c7)CC6)nn5)C4)C3)cc1)=N[C@@H](Cc1ncco1)c1nnc(C)n1-2 [I-469] | < 500 |  | < 500 | > 3000 |  | 
CCNC(=O)C[C@@H]1N=C(c2ccc(N3CC(OC4CN(c5ccc(C(=O)N[C@H]6CC[C@H](Oc7ccc(C#N)c(Cl)c7)CC6)nn5)C4)C3)cc2)c2c(sc(C)c2C)-n2c(C)nnc21 [I-70] | < 500 |  | < 500 | 500 to 1500 |  | 
Cc1sc2c(c1C)C(c1ccc(N3CCN(CC4CCN(c5ccc(C(=O)N[C@H]6CC[C@H](Oc7ccc(C#N)c(Cl)c7)CC6)nn5)CC4)CC3)cc1)=N[C@@H](C)c1nnc(C)n1-2 [I-498] | < 500 |  | < 500 | > 3000 |  | 
Cc1sc2c(c1C)C(c1ccccc1N1CCC3(CCCN(c4ccc(C(=O)N[C@H]5CC[C@H](Oc6ccc(C#N)c(Cl)c6)CC5)nn4)C3)CC1)=N[C@@H](C)c1nnc(C)n1-2 [I-737] | 500 to 1500 |  | < 500 | < 500 |  | 
Cc1sc2c(c1C)C(c1ccc(N3C[C@@H]4CN(c5ccc(C(=O)N[C@H]6CC[C@H](Oc7ccc(C#N)c(Cl)c7)CC6)nn5)C[C@H]4C3)cc1)=N[C@@H](C)c1nnc(C)n1-2 [I-706] |  | < 500 |  |  | < 500 | < 500
Cc1sc2c(c1C)C(c1ccc(N3CCC4(CCCN(c5ccc(C(=O)N[C@H]6CC[C@H](Oc7ccc(C#N)c(Cl)c7)CC6)nn5)C4)CC3)cn1)=NC1(CC1)c1nnc(C)n1-2 [I-501] | < 500 |  | < 500 | > 3000 |  | 
Cc1sc2c(c1C)C(c1ccc(C3CCC4(CC3)CCN(c3ccc(C(=O)N[C@H]5CC[C@H](Oc6ccc(C#N)c(Cl)c6)CC5)nn3)C4)cc1)=NC1(CC1)c1nnc(C)n1-2 (stereo partly drawn) [I-517] |  | > 3000 | < 500 | > 3000 |  | 
Cc1sc2c(c1C)C(c1ccc(N[C@H]3CC[C@H](Nc4ncc(C(=O)N[C@H]5CC[C@H](Oc6ccc(C#N)c(Cl)c6)CC5)cn4)CC3)cc1)=NC(Cc1ncco1)c1nnc(C)n1-2 (stereo partly drawn) [I-790] | < 500 |  | < 500 | < 500 |  | 
Cc1sc2c(c1C)C(c1ccc(OCC3CCC4(C3)CN(c3ccc(C(=O)N[C@H]5CC[C@H](Oc6ccc(C#N)c(Cl)c6)CC5)nn3)CCO4)cc1)=N[C@@H](C)c1nnc(C)n1-2 (stereo partly drawn) [I-638] |  | 1500 to 3000 |  |  | < 500 | < 500
Cc1sc2c(c1C)C(c1cccc(OC3CCC4(CCN(c5ccc(C(=O)N[C@H]6CC[C@H](Oc7ccc(C#N)c(Cl)c7)CC6)nn5)C4)C3)c1)=N[C@@H](C)c1nnc(C)n1-2 (stereo partly drawn) [I-750] |  | < 500 |  |  | < 500 | < 500
CC[C@@H]1N=C(c2ccc(N3CC4(CC(Cc5ccc(C(=O)N[C@H]6CC[C@H](Oc7ccc(C#N)c(Cl)c7)CC6)nn5)C4)C3)cc2)c2c(sc(C)c2C)-n2c(C)nnc21 [I-610] | 500 to 1500 |  | < 500 | > 3000 |  | 
